Experimental data taken from US9789087B2, “PAR4 inhibitor therapy for patients with PAR4 polymorphism” (THOMAS JEFFERSON UNIVERSITY, priority 2015, dated 2017).
Where a chain is given by its changes, count along the chain named. “Also recorded” adds a separate entry of the source.

Assays:
PAR4-Thr120 = molecular target: T1, PAR4-Thr120 (Homo sapiens, UniProt Q96RI0, A120T); assay: PAR4-AP-induced platelet aggregation, platelets of PAR4-Thr120 homozygotes; format: cell-based; conditions: homozygous PAR4-Thr120, up to 1 μM YD-3, 100 μM PAR4-AP, FIG. 5C
T1 construct: endogenous in cells; host or cells: washed platelets of human donors homozygous for rs773902 A (Thr120)
T1 sequence (Q96RI0 18-385 A120T): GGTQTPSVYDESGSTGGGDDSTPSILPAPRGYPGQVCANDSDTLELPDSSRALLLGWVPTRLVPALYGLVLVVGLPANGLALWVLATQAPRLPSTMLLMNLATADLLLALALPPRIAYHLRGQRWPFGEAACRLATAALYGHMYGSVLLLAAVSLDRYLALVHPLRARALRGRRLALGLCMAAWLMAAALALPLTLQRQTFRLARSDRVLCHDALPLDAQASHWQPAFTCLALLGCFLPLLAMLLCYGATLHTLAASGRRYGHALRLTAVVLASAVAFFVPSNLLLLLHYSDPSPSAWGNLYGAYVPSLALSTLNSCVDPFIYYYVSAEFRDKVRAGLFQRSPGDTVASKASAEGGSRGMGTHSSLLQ
Procedure: (§1) FIGS. 5A-5C show PAR4 variants are differentially susceptible to pharmacological inhibition. Platelets from donors genotyped for rs773902 were washed, incubated with the indicated concentrations of vorapaxar (VPX) (FIGS. 5A, 5B) or YD-3 (FIG. 5C) and then stimulated with (FIG. 5A) 5 μM PAR1-AP or (FIGS. 5B, 5C) 100 μM PAR4-AP. Aggregation was measured using light transmission aggregometry. n=3 each genotype. Horizontal lines indicate mean. (P=0.02).
(§2) Platelets were pre-incubated with the indicated concentrations of vorapaxar^26 (Axon Medchem, Reston, Va., USA) or YD-3 [1-benzyl-3-(ethoxycarbonylphenyl)-indazole]^7 (a gift from Dr. Craig Lindsley at Vanderbilt University) as previously described.^27 Aggregation was then quantified after stimulation with 5 μM PAR1-AP or 100 μM PAR4-AP.
(§3) Multiple linear regression analysis was performed including the PAR4 protein level and the risk SNPs as explanatory variables and PAR4 reactivity as the dependent variable. To determine fraction of variance of PAR4 reactivity explained by PAR4 protein levels and F2RL3 genotype, PAR4 protein level was brought into the model first followed by rs773902 genotype. To test for an interaction between rs773902 and YD-3, a linear regression was performed, using aggregation as the dependent variable and PAR4-AP concentration, YD3 concentration, and rs773902 genotype as […]. […]

PAR4 [1] = assay: PAR4-AP-induced platelet aggregation, light transmission aggregometry, donors genotyped for rs773902; format: cell-based, human; conditions: 100 μM PAR4-AP
Procedure: as §1, with “rs773902” left out, “(P=0.02). […] Craig Lindsley at Vanderbilt University) as previously described.^27 Aggregation was then quantified after stimulation with 5 μM PAR1-AP or 100 μM PAR4-AP.” for “(P=0.02).”

PAR4-Ala120 = molecular target: T2, PAR4-Ala120 (Homo sapiens, UniProt Q96RI0); assay: PAR4-AP-induced platelet aggregation, platelets of PAR4-Ala120 homozygotes; format: cell-based; conditions: 0.5 μM YD-3, 100 μM PAR4-AP, FIG. 5C
T2 construct: endogenous in cells; host or cells: washed platelets of human donors homozygous for rs773902 G (Ala120)
T2 sequence (Q96RI0 18-385): T1 sequence (Q96RI0 18-385 A120T) with T103A
Procedure: as §1, §2, §3

PAR4 [2] = molecular target: T3, PAR4 (Homo sapiens, UniProt Q96RI0); conditions: cited from earlier work
T3 construct: host or cells: platelets (cited work)
T3 sequence (Q96RI0 18-385): T1 sequence (Q96RI0 18-385 A120T) with T103A

smooth muscle cell = conditions: cited from earlier work
[3] = oral, rat carotid balloon injury; cited from earlier work
platelets [4] = conditions: cited from earlier work
platelets [5] = conditions: cited from earlier work; remark: listed apart in the source
PAR1 = molecular target: T4, PAR1 (Homo sapiens, UniProt P25116); assay: PAR1-AP-induced platelet aggregation, light transmission aggregometry; format: cell-based; conditions: washed platelets, 5 μM PAR1-AP, FIG. 5A
T4 construct: endogenous in cells; host or cells: washed platelets of healthy human donors (cohort 2)
T4 sequence (P25116 22-425): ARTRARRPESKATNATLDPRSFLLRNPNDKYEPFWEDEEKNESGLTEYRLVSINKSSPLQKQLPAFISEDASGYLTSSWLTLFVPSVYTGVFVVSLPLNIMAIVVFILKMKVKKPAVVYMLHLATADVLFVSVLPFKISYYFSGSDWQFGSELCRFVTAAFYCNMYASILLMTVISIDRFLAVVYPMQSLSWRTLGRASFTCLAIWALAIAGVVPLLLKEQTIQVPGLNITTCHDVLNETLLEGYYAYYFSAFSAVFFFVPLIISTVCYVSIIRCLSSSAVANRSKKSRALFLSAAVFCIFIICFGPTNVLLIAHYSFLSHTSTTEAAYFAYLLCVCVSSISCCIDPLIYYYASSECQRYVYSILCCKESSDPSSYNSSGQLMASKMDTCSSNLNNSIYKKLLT
Procedure: Platelets from donors genotyped for […] were washed, incubated with the indicated concentrations of vorapaxar (VPX) (FIGS. 5A, 5B) or YD-3 (FIG. 5C) and then stimulated with (FIG. 5A) 5 μM PAR1-AP or (FIGS. 5B, 5C) 100 μM PAR4-AP. Aggregation was measured using light transmission aggregometry. n=3 each genotype. Horizontal lines indicate mean. […] Craig Lindsley at Vanderbilt University) as previously described.^27 Aggregation was then quantified after stimulation with 5 μM PAR1-AP or 100 μM PAR4-AP.

Row | Compound | inhibition of PAR4-induced platelet aggregation (PAR4-Thr120) | inhibition of PAR4-induced platelet aggregation (PAR4 [1]; rs773902 heterozygotes, FIG. 5C) | inhibition of PAR4-induced platelet aggregation (PAR4-Ala120) | block of PAR4-induced platelet aggregation (PAR4 [2]) | block of thrombin-induced smooth muscle cell proliferation (smooth muscle cell) | intimal thickening [3] | block of neutrophil-induced platelet aggregation (platelets [4]) | block of thrombin-induced platelet recruitment (platelets [5]) | effect on PAR4-induced platelet aggregation (PAR4 [1]; washed platelets, regardless of rs773902 genotype, FIG. 5B) | inhibition of platelet aggregation through PAR1 (PAR1)
1 | CCOC(=O)c1ccc(-c2nn(Cc3ccccc3)c3ccccc23)cc1 [YD-3, ethyl 4-(1-benzyl-1H-indazol-3-yl)benzoate] | resistant | intermediate response | inhibited | specifically blocks; also recorded: blocking | blocks | attenuates | blocks | blocks |  | 
2 | CCOC(=O)N[C@@H]1CC[C@@H]2[C@@H](C1)C[C@H]1C(=O)O[C@H](C)[C@H]1[C@H]2/C=C/c1ccc(-c2cccc(F)c2)cn1 [vorapaxar] |  |  |  |  |  |  |  |  | no effect | efficiently inhibited
